# Tests used:
# [1] = tested on: Karpas 299 lymphoma cell line positive for the oncogenic fusion protein NPM-ALK; assay: Tritiated thymidine uptake cell proliferation assay, Karpas 299; assay type: cell-based; settings: Homo sapiens, KARPAS-299; percentage of inhibition of cell proliferation at 200 nM; read-out: % Inhibition Karpas 299 cells
# Description: (§1) Method: Tritiated Thymidine Uptake Cell Proliferation Assay
# (§2) The following procedure was used with parent untransformed BaF3 cells, BaF3 cells transformed with the oncogenic fusion protein NPM/ALK, NPM/ALK positive SUDHL-1 cells, NPM/ALK positive SUPM2, ALK-negative HL60 cells, NPM/ALK positive KARPAS-299 cells. The parent untransformed BaF3 cells or Alk-negative HL60 cells are used as controls. Cells were seeded in U-bottomed 96-well plates at 10000 cells/well in a volume of 100 μl in supplemented medium. In the case of the parent untransformed BaF3 cells, the medium was supplemented with IL-3. Serial dilutions of inhibitors were added to the appropriate wells and volumes adjusted to 200 μl. Controls were treated with the equivalent volume of vehicle, DMSO, alone. Plates were incubated at 37° C. for 72 h. 3[H]-thymidine (1 μCi/well) was added for the last 16 h of incubation. Cells were harvested on to paper filters and 3[H]-thymidine incorporation was measured using a scintillation counter (1430 MicroBeta, Wallac, Turku, Finland). The 50% inhibitory concentration (IC50) was defined as the concentration of inhibitor, expressed in nanomolar units, that gave a 50% decrease in 3[H]-thymidine uptake compared with controls.
# In Table 1 are listed results for selected examples of compounds of the invention, reported as percentage of inhibition of cell proliferation at 200 nM, obtained from cellular assays in Karpas 299 lymphoma cell line positive for the oncogenic fusion protein NPM-ALK.
# [2] = biological target: T1, BaF3 cell line transfected with the oncogenic fusion protein NPM-ALK and expressing the mutation L1196M (Homo sapiens, UniProt Q9UM73, L1196M, cells depend on it); assay: Tritiated thymidine uptake cell proliferation assay, BaF3 NPM-ALK L1196M; assay type: cell-based, murine; settings: for GI50: averaged IC50 values of cell proliferation inhibition, class letters, read-out: IC50 BaF3 NPM-ALK L1196M cells; for % Inhibition BaF3 NPM-ALK L1196M cells: percentage of inhibition of cell proliferation at 200 nM
# T1 construct: fused on or other part: P06748 (Nucleophosmin)
# T1 sequence (Q9UM73 whole entry L1196M, the tested form may be a part): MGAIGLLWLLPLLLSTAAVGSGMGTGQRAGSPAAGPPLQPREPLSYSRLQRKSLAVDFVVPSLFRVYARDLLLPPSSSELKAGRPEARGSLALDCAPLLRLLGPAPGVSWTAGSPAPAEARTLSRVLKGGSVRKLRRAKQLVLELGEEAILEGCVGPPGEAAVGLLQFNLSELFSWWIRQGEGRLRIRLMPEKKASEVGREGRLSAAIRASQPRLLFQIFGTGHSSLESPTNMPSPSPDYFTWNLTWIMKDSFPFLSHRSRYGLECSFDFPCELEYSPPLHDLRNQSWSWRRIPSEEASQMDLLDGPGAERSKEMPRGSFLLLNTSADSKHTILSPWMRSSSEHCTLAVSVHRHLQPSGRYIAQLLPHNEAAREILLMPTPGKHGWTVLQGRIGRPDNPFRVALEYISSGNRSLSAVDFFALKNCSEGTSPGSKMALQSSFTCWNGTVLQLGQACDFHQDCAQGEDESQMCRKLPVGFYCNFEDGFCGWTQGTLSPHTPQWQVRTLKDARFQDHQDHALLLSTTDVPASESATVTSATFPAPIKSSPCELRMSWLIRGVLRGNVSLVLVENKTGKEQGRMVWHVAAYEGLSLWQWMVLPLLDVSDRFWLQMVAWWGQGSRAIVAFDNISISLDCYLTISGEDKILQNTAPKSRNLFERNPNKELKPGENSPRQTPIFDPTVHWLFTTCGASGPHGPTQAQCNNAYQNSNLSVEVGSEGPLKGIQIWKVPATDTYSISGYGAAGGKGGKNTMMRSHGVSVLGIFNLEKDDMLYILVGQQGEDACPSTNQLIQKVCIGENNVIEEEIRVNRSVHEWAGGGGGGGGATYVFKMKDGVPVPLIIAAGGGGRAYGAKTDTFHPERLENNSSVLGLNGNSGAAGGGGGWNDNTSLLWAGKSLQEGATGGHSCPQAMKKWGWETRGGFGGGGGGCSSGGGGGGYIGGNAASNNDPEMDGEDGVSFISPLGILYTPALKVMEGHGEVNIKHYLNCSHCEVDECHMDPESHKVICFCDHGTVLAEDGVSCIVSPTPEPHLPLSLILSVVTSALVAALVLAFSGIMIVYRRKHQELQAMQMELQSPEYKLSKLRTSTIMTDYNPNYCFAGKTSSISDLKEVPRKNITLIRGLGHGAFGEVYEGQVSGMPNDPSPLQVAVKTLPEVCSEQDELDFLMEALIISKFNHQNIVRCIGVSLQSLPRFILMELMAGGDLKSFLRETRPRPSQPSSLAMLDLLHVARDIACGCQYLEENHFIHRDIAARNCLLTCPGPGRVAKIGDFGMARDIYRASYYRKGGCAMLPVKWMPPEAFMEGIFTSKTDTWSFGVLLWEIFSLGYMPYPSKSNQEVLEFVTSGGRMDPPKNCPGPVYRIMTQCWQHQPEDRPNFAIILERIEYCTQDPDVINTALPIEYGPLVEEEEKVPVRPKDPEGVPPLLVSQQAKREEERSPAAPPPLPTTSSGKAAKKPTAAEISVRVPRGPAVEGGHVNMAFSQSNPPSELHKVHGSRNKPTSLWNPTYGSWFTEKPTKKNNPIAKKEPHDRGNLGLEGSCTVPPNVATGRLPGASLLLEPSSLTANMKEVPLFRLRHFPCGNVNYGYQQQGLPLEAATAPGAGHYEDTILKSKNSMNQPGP
# Description: as §1, §2
# In Table 2 are listed results for selected examples of compounds of the invention, reported as percentage of inhibition of cell proliferation at 200 nM, obtained from cellular assays in BaF3 cell line transfected with the oncogenic fusion protein NPM-ALK and expressing the mutation L1196M.
# In Table 3 are listed averaged IC50 values of cell proliferation inhibition for selected examples of compounds of the present invention, obtained from cellular assays in BaF3 cell line transfected with the oncogenic fusion protein NPM-ALK and expressing the mutation L1196M. The letter “A” designates an IC50 value between 1 nM and 50 nM, the letter “B” designates an IC50 value between 50 nM and 100 nM, the letter “C” designates an IC50 value between 100 and 500 nM.
Structure (SMILES),inhibition at 0.2 µM [1],GI50 [2],% Inhibition BaF3 NPM-ALK L1196M cells [2]
"CN1CCN(c2ccc(C(=O)Nc3n[nH]c4cc(-c5cccc(O)c5)c(Cc5cc(F)cc(F)c5)cc34)c(NC3CCOCC3)c2)CC1 [Example 4, N-[5-[(3,5-difluorophenyl)methyl]-6-(3-hydroxyphenyl)-1H-indazol-3-yl]-4-(4-methylpiperazin-1-yl)-2-(tetrahydropyran-4-ylamino)benzamide]",99%,1 to 50 nM,99%
"Cc1cc(O)ccc1-c1cc2[nH]nc(NC(=O)c3ccc(N4CCN(C)CC4)cc3NC3CCOCC3)c2cc1Cc1cc(F)cc(F)c1 [Example 5, N-[5-[(3,5-difluorophenyl)methyl]-6-(4-hydroxy-2-methyl-phenyl)-1H-indazol-3-yl]-4-(4-methylpiperazin-1-yl)-2-(tetrahydropyran-4-ylamino)benzamide]",100%,1 to 50 nM,100%
"CN1CCN(c2ccc(C(=O)Nc3n[nH]c4cc(-c5ccc(O)cc5F)c(Cc5cc(F)cc(F)c5)cc34)c(NC3CCOCC3)c2)CC1 [Example 6, N-[5-[(3,5-difluorophenyl)methyl]-6-(2-fluoro-4-hydroxy-phenyl)-1H-indazol-3-yl]-4-(4-methylpiperazin-1-yl)-2-(tetrahydropyran-4-ylamino)benzamide]",100%,1 to 50 nM,100%
"Cc1ccc(O)cc1-c1cc2[nH]nc(NC(=O)c3ccc(N4CCN(C)CC4)cc3NC3CCOCC3)c2cc1Cc1cc(F)cc(F)c1 [Example 7, N-[5-[(3,5-difluorophenyl)methyl]-6-(5-hydroxy-2-methyl-phenyl)-1H-indazol-3-yl]-4-(4-methylpiperazin-1-yl)-2-(tetrahydropyran-4-ylamino)benzamide]",93%,1 to 50 nM,100%
"CN1CCN(c2ccc(C(=O)Nc3n[nH]c4cc(-c5cc(O)ccc5F)c(Cc5cc(F)cc(F)c5)cc34)c(NC3CCOCC3)c2)CC1 [Example 8, N-[5-[(3,5-difluorophenyl)methyl]-6-(2-fluoro-5-hydroxy-phenyl)-1H-indazol-3-yl]-4-(4-methylpiperazin-1-yl)-2-(tetrahydropyran-4-ylamino)benzamide]",99%,1 to 50 nM,99%
"CN1CCN(c2ccc(C(=O)Nc3n[nH]c4cc(-c5ccc(O)cc5C(F)(F)F)c(Cc5cc(F)cc(F)c5)cc34)c(NC3CCOCC3)c2)CC1 [Example 9, N-[5-[(3,5-difluorophenyl)methyl]-6-[4-hydroxy-2-(trifluoromethyl)phenyl]-1H-indazol-3-yl]-4-(4-methylpiperazin-1-yl)-2-(tetrahydropyran-4-ylamino)benzamide]",100%,1 to 50 nM,99%
"CN1CCN(c2ccc(C(=O)Nc3n[nH]c4cc(-c5cnc(N)nc5)c(Cc5cc(F)cc(F)c5)cc34)c(NC3CCOCC3)c2)CC1 [Example 10, N-[6-(2-aminopyrimidin-5-yl)-5-[(3,5-difluorophenyl)methyl]-1H-indazol-3-yl]-4-(4-methylpiperazin-1-yl)-2-(tetrahydropyran-4-ylamino)benzamide]",93%,,61%
"CN1CCN(c2ccc(C(=O)Nc3n[nH]c4cc(-c5ccc(N)nc5)c(Cc5cc(F)cc(F)c5)cc34)c(NC3CCOCC3)c2)CC1 [Example 11, N-[6-(6-amino-3-pyridyl)-5-[(3,5-difluorophenyl)methyl]-1H-indazol-3-yl]-4-(4-methylpiperazin-1-yl)-2-(tetrahydropyran-4-ylamino)benzamide]",95%,50 to 100 nM,88%
"CN1CCN(c2ccc(C(=O)Nc3n[nH]c4cc(-c5cncc(N)c5)c(Cc5cc(F)cc(F)c5)cc34)c(NC3CCOCC3)c2)CC1 [Example 12, N-[6-(5-amino-3-pyridyl)-5-[(3,5-difluorophenyl)methyl]-1H-indazol-3-yl]-4-(4-methylpiperazin-1-yl)-2-(tetrahydropyran-4-ylamino)benzamide]",100%,50 to 100 nM,99%
"CN1CCN(c2ccc(C(=O)Nc3n[nH]c4cc(-c5cccc(CO)c5)c(Cc5cc(F)cc(F)c5)cc34)c(NC3CCOCC3)c2)CC1 [Example 13, N-[5-[(3,5-difluorophenyl)methyl]-6-[3-(hydroxymethyl)phenyl]-1H-indazol-3-yl]-4-(4-methylpiperazin-1-yl)-2-(tetrahydropyran-4-ylamino)benzamide]",,100 to 500 nM,97%
"Cc1cc(N)ncc1-c1cc2[nH]nc(NC(=O)c3ccc(N4CCN(C)CC4)cc3NC3CCOCC3)c2cc1Cc1cc(F)cc(F)c1 [Example 14, N-[6-(6-amino-4-methyl-3-pyridyl)-5-[(3,5-difluorophenyl)methyl]-1H-indazol-3-yl]-4-(4-methylpiperazin-1-yl)-2-(tetrahydropyran-4-ylamino)benzamide]",62%,,66%
"CN1CCN(c2ccc(C(=O)Nc3n[nH]c4cc(-c5cnn(C(C)(C)CO)c5)c(Cc5cc(F)cc(F)c5)cc34)c(NC3CCOCC3)c2)CC1 [Example 15, N-[5-[(3,5-difluorophenyl)methyl]-6-[1-(2-hydroxy-1,1-dimethyl-ethyl)pyrazol-4-yl]-1H-indazol-3-yl]-4-(4-methylpiperazin-1-yl)-2-(tetrahydropyran-4-ylamino)benzamide]",100%,50 to 100 nM,100%
"CN1CCN(c2ccc(C(=O)Nc3n[nH]c4cc(-c5cc[nH]c(=O)c5)c(Cc5cc(F)cc(F)c5)cc34)c(NC3CCOCC3)c2)CC1 [Example 16, N-[5-[(3,5-difluorophenyl)methyl]-6-(2-oxo-1H-pyridin-4-yl)-1H-indazol-3-yl]-4-(4-methylpiperazin-1-yl)-2-(tetrahydropyran-4-ylamino)benzamide]",88%,,
"CN1CCN(c2ccc(C(=O)Nc3n[nH]c4cc(-c5cn[nH]c5)c(Cc5cc(F)cc(F)c5)cc34)c(NC3CCOCC3)c2)CC1 [Example 18, N-[5-[(3,5-difluorophenyl)methyl]-6-(1H-pyrazol-4-yl)-1H-indazol-3-yl]-4-(4-methylpiperazin-1-yl)-2-(tetrahydropyran-4-ylamino)benzamide]",100%,100 to 500 nM,97%
"CN1CCN(c2ccc(C(=O)Nc3n[nH]c4cc(-c5cc(O)cc(F)c5)c(Cc5cc(F)cc(F)c5)cc34)c(NC3CCOCC3)c2)CC1 [Example 19, N-[5-[(3,5-difluorophenyl)methyl]-6-(3-fluoro-5-hydroxy-phenyl)-1H-indazol-3-yl]-4-(4-methylpiperazin-1-yl)-2-(tetrahydropyran-4-ylamino)benzamide]",99%,50 to 100 nM,100%
"CNC(=O)c1ccc(-c2cc3[nH]nc(NC(=O)c4ccc(N5CCN(C)CC5)cc4NC4CCOCC4)c3cc2Cc2cc(F)cc(F)c2)cc1 [Example 20, N-[5-[(3,5-difluorophenyl)methyl]-6-[4-(methylcarbamoyl)phenyl]-1H-indazol-3-yl]-4-(4-methylpiperazin-1-yl)-2-(tetrahydropyran-4-ylamino)benzamide]",,,57%
"Cc1cc(-c2cc3[nH]nc(NC(=O)c4ccc(N5CCN(C)CC5)cc4NC4CCOCC4)c3cc2Cc2cc(F)cc(F)c2)ccc1O [Example 21, N-[5-[(3,5-difluorophenyl)methyl]-6-(4-hydroxy-3-methyl-phenyl)-1H-indazol-3-yl]-4-(4-methylpiperazin-1-yl)-2-(tetrahydropyran-4-ylamino)benzamide]",100%,1 to 50 nM,99%
"COc1cccc(-c2cc3[nH]nc(NC(=O)c4ccc(N5CCN(C)CC5)cc4NC4CCOCC4)c3cc2Cc2cc(F)cc(F)c2)c1 [Example 24, N-[5-[(3,5-difluorophenyl)methyl]-6-(3-methoxyphenyl)-1H-indazol-3-yl]-4-(4-methylpiperazin-1-yl)-2-(tetrahydropyran-4-ylamino)benzamide]",,,52%

# Reference: patent US10336707B2, “Heterocyclic derivatives modulating activity of certain protein kinases” (EUDENDRON S.R.L., priority 2014, dated 2019)
